Data published in PubChem BioAssay (NCI).
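Five compound concentrations were applied to cells in 96-well plates for 48 hours; endpoints were derived by simple linear interpolation of the resulting dose-response curve. GI50 marks 50% less growth. TGI denotes the concentration required for complete inhibition of growth.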

Assays:
Test in all cases: NCI anticancer screen, dose series, 48 h
A498 renal = system: A498 renal
ACHN renal = system: ACHN renal
HCT-116 colon = system: HCT-116 colon
OVCAR-3 ovarian = system: OVCAR-3 ovarian
OVCAR-4 ovarian = system: OVCAR-4 ovarian
SF-268 CNS = system: SF-268 CNS
SK-MEL-2 melanoma = system: SK-MEL-2 melanoma
SNB-75 CNS = system: SNB-75 CNS

| Compound | GI50 (A498 renal) [µM] | TGI (A498 renal) [µM] | GI50 (ACHN renal) [µM] | TGI (ACHN renal) [µM] | GI50 (HCT-116 colon) [µM] | TGI (HCT-116 colon) [µM] | GI50 (OVCAR-3 ovarian) [µM] | TGI (OVCAR-3 ovarian) [µM] | GI50 (OVCAR-4 ovarian) [µM] | TGI (OVCAR-4 ovarian) [µM] | GI50 (SF-268 CNS) [µM] | TGI (SF-268 CNS) [µM] | GI50 (SK-MEL-2 melanoma) [µM] | TGI (SK-MEL-2 melanoma) [µM] | TGI (SNB-75 CNS) [µM] | GI50 (SNB-75 CNS) [µM] |
| --- | --- | --- | --- | --- | --- | --- | --- | --- | --- | --- | --- | --- | --- | --- | --- | --- |
| COC(C)(C)[C@@H](O)[C@H](O)C[C@H](C)C1=C2CC[C@@H]3[C@@]4(C)CC[C@@H](OC(C)=O)C(C)(C)[C@@H]4C[C@@H](OC4OC(COC(C)=O)C(O)C(O)C4O)[C@@]3(C)[C@]2(C)CC1 (stereo partly specified) | 14.2 | 27.6 | 10.4 | 22.2 | 6.09 | 19.2 | 7.37 | 21.1 | 10.8 | 23.1 | 10.3 | 25.9 | 13.2 | 26 | 21.2 | – |
| O=[N+]([O-])c1cccc(/C=N/NC2=CS(=O)(=O)C=C2)c1 | – | > 100 | – | > 100 | – | > 100 | – | > 100 | – | > 100 | – | > 100 | – | > 100 | > 100 | – |
| Fc1ccc(-c2ncn(C3CCNCC3)c2-c2ccnc(Oc3ccc4c(c3)OCO4)n2)cc1 | 16 | > 25 | 8.82 | > 25 | 16.8 | > 25 | > 25 | > 25 | 19.7 | > 25 | 24.4 | > 25 | > 25 | > 25 | > 25 | > 16.1 |
| COc1ccc2c(c1)/C(=C\c1ccncc1)C(=O)N2 | – | – | 4.41 | 15.9 | 3.72 | 17.8 | 10.4 | 27.5 | – | – | 5.07 | 37.3 | 6.12 | 23.6 | – | – |
| Nc1ccn(C2CC(F)C(CO)O2)c(=O)n1 (stereo unspecified) | – | – | > 100 | > 100 | > 100 | > 100 | > 100 | > 100 | > 100 | > 100 | > 100 | > 100 | > 100 | > 100 | > 100 | > 100 |
| COc1ccc2c(c1)nc(NNC(=O)c1cnccn1)c1cccn12 | 1.31 | 2.93 | 0.0906 | 1.4 | 0.143 | 2.71 | 0.186 | 3.82 | 0.114 | 2.3 | 0.138 | 6.67 | 0.697 | 3.88 | 3.06 | 0.458 |
| COc1ccc(-c2c(C)c(C(=O)O)nc(-c3ccc4c(O)c(OC)c5c(c4n3)=NC(C)(C)N=5)c2N)c(O)c1OC | – | – | – | 27.7 | – | 52.1 | – | 43.2 | – | > 100 | – | 21.6 | – | 41.4 | 11.4 | – |
| CN(C)Cc1ccc(-c2cc3onc(-c4ccccc4)c3c(=O)n2C)cc1 | – | 56.9 | – | > 100 | – | 30.3 | – | > 100 | – | > 100 | – | > 100 | – | 78.8 | – | – |
| NC(=N\N=C/c1ccc(O)cc1)/C(N)=N\N=C/c1ccc(O)cc1 | > 100 | > 100 | 3.85 | > 100 | > 100 | > 100 | > 100 | > 100 | > 90.1 | > 100 | 16.4 | > 100 | > 79 | > 100 | 43.3 | 17.3 |
| COc1cc2c(cc1OC)-c1ncc3c(OC)ccc(OC)c3c1C2 | – | – | 24 | > 100 | 17.8 | > 100 | 15.4 | 46.8 | 71.9 | > 100 | – | – | 27.3 | 79 | > 100 | > 100 |
| C=CC(=O)N1CCC(c2ccc(C(N)=O)c(-c3ccc(Oc4ccccc4)cc3)n2)CC1 | 12.8 | 50.1 | 25.3 | > 100 | 35.9 | > 100 | 36 | > 100 | 21.6 | > 100 | 50.5 | > 100 | 27.1 | > 100 | > 100 | 17 |
| CN(C)c1ccc(Nc2c3ccccc3nc3ccccc23)cc1 | 0.353 | 4.45 | 0.532 | 2.27 | 0.38 | 1.7 | 1.22 | 3.22 | 1.26 | 5.44 | 1.52 | 7.83 | 0.821 | 2.83 | 4.09 | 0.99 |
| CCOc1ccc2c(-c3ccnc(Nc4cc(OC)cc(C(F)(F)F)c4)n3)cnn2n1 | > 25 | > 25 | > 25 | > 25 | 6.42 | > 25 | 6.2 | > 25 | > 15.8 | > 25 | > 18.9 | > 25 | > 25 | > 25 | > 25 | 15.1 |
| CCCn1c2c(c3c(O)cccc31)C(=O)c1ccccc1-2 | – | – | 14.9 | 45.1 | 29.2 | > 100 | 31.3 | > 100 | 0.0961 | 6.12 | 19.5 | > 100 | 87 | > 100 | – | – |
| COC(=O)c1c2c(c(C)[n+]([O-])c1C)C(=O)C=C(NCc1ccccc1)C2=O | 1.57 | 2.96 | – | – | 0.303 | 1.05 | 0.277 | 0.791 | 0.283 | 1.18 | 1.51 | 4.47 | 1.25 | 2.82 | 3.22 | 1.82 |
| O=S(=O)(NC1CCCCC1)c1ccc2c(c1)OCCOCCOCCOCCO2 | – | > 100 | – | > 100 | – | > 100 | – | – | – | – | – | > 100 | – | – | > 100 | – |
| OC1(c2ccccc2)C2CC=CC2C1(c1ccccc1)c1ccccc1 (stereo unspecified) | – | 57 | – | > 100 | – | > 100 | – | > 100 | – | – | – | > 100 | – | 27.5 | > 100 | – |
| C=C1C(=O)O[C@H]2[C@H]1CC/C(COC(=O)CCCCCC(=O)OC/C1=C/CC[C@@]3(C)O[C@H]3[C@H]3OC(=O)C(=C)[C@@H]3CC1)=C\CC[C@@]1(C)O[C@@H]21 | 11.4 | 27.4 | 1.4 | 3.1 | – | – | 1.11 | 2.38 | 2.92 | 15.3 | 3.44 | 14.8 | 5.17 | 21.2 | 29.6 | 3.05 |
